Test results published in the NIST ThermoML archive (doi:10.1016/j.tca.2013.08.001).
Numbers after ± are expanded uncertainties.

Experiments:
[1] = DTA
[2] = Molar enthalpy of transition or fusion; details: DSC

- Triple point temperature ([1]; Crystal 1): 318.08 ± 0.39 K
- Triple point temperature ([1]; Crystal 2): 317.22 ± 0.39 K
- Molar enthalpy of transition or fusion ([2]; Crystal 1): 48.8 ± 1.6 kJ/mol
- Molar enthalpy of transition or fusion ([2]; Crystal 2): 28.9 ± 0.64 kJ/mol
SMILES: CCCCCCCCCCCCCCCCCCCCCC [docosane]
